Earlier results on 19 compounds are cited in PMC11949389 (Polish Journal of Microbiology, 2025).

≈ marks a conversion by molar mass, not a printed value. Like-named read-outs stand apart in the source and are kept apart here.

In series [1] the test system is Staphylococcus aureus. The note with it: for tetracycline MIC: ref Sousa Silveira et al. (2020); for MIC/Sensitivity: Staphylococcus aureus, ref Kwiatkowski et al. 2020, Sayout et al. 2020, Sousa Silveira et al. 2020, Macêdo et al. 2022, Noumi et al. 2023, Sharma et al. 2023.
Series [2] concerns Enterobacter cloacae. The note with it: ref Sayout et al. 2020.
In series [3] the test system is Acinetobacter baumannii. The conditions noted are these: ref Sayout et al. 2020.
For series [4], the system named is Vibrio anguillarum, and Vibrio harveyi. The note with it: ref Rossi et al. (2021).
Series [5] has as its system Klebsiella pneumoniae. The conditions noted are these: ref Sayout et al. 2020, de Souza et al. 2021, Kwiatkowski et al. 2022.
Series [6] relates to Escherichia coli. The conditions noted are these: Escherichia coli; ref Owen et al. 2019; Sayout et al. 2020; Noumi et al. 2023.
Series [7] deals with Candida krusei. The conditions noted are these: Candida krusei; ref Sharifzadeh et al. 2019; Iraji et al. 2020; Biernasiuk et al. 2022; Stringaro et al. 2022.
Series [8] has as its system Candida glabrata. The note with it: Candida glabrata; ref Sharifzadeh et al. 2019; Iraji et al. 2020; Biernasiuk et al. 2022; Stringaro et al. 2022.
In series [9] the test system is Candida tropicalis. The note with it: Candida tropicalis; ref Iraji et al. 2020; Stringaro et al. 2022.
Series [10] relates to Candida parapsilosis. The note with it: ref Iraji et al. 2020, Biernasiuk et al. 2022.
The test system of series [11] is Candida dubliniensis. The note with it: ref Iraji et al. 2020.
Series [12] relates to Candida albicans. The conditions noted are these: Candida albicans; ref Sharifzadeh et al. 2019; Iraji et al. 2020; Shaban et al. 2020; Stringaro et al. 2022; Biernasiuk et al. 2022.
Series [13] deals with Campylobacter jejuni.
For series [14], the system named is Klebsiella oxytoca. The note with it: ref Sayout et al. 2020.
Series [15] relates to Enterobacter aerogenes. The note with it: ref Sayout et al. 2020.
Series [16] relates to Salmonella spp. The note with it: ref Sayout et al. 2020.
The subject of series [17] is Mupirocin-susceptible Staphylococcus aureus. The conditions noted are these: ref Kwiatkowski et al. 2019.
Series [18] deals with Mupirocin-resistant Staphylococcus aureus. The conditions noted are these: ref Kwiatkowski et al. 2019.
In series [19] the test system is Pseudomonas aeruginosa. The note with it: Pseudomonas aeruginosa; ref Owen et al. 2019; Sim et al. 2019; Noumi et al. 2023.
For series [20], the system named is Methicillin-resistant Staphylococcus aureus. The note with it: MRSA isolates, ref Kwiatkowski et al. (2020).

Consider `CN(C)[C@@H]1C(O)=C(C(N)=O)C(=O)[C@@]2(O)C(O)=C3C(=O)c4c(O)cccc4[C@@](C)(O)[C@H]3C[C@@H]12` [tetracycline, reference compound], for which the “tetracycline MIC” value was 114 µg/mL in series [1] (S. aureus, before combination) and 101 µg/mL in [1] (S. aureus, combined with thymol).
As for `CC1=CCC2CC1C2(C)C` (stereo not drawn) [α-Pinene], the MIC/Sensitivity in [2] is 11.88 µg/mL (≈ 0.0872 mM); in [3], 11.88 µg/mL (≈ 0.0872 mM); in series [1], 11.88 µg/mL (≈ 0.0872 mM); in [5] it was 23.75 µg/mL (≈ 0.174 mM); in series [6] it was 11.88 µg/mL (≈ 0.0872 mM). The “activity at the tested concentrations” value in [4] was “no activity”.
For the compound (–)-Limonene, the MIC/Sensitivity was 8.1738 to 429.1245 mg/mL in [7]; 50.4051 to 3432.996 mg/mL in series [8]; 213.8811 to 1716.498 mg/mL in [9]; 50.4051 to 213.8811 mg/mL in series [10]; 12.2607 to 1716.498 mg/mL in [11]; 8.1738 to 13731.984 mg/mL in series [12].
Turning to `C=CC(=C)CCC=C(C)C` [Myrcene], the MIC/Sensitivity in series [2] is 7.75 µg/mL (≈ 0.0569 mM); in series [5] it was 15.50 µg/mL (≈ 0.114 mM); in [6], 1.94 µg/mL (≈ 0.0142 mM).
Take `CC(C)[C@@H]1CC[C@@H](C)CC1=O` [Menthone]: in series [1], the MIC/Sensitivity is 27900 µg/mL (≈ 181 mM).
As to `CC1=CCC(C(C)C)=CC1` [γ-Terpinene], the MIC/Sensitivity is 6.50 µg/mL (≈ 0.0477 mM) in series [2]; 4.88 µg/mL (≈ 0.0358 mM) in series [3]; 4.88 µg/mL (≈ 0.0358 mM) in series [5]; 1000 µg/mL (≈ 7.34 mM) in [13] (Campylobacter jejuni, ref Šimunović et al. 2020); 4.88 µg/mL (≈ 0.0358 mM) in series [14]; 4.88 µg/mL (≈ 0.0358 mM) in series [15]. Moreover, the MIC/Sensitivity in series [16] is 6.50 µg/mL (≈ 0.0477 mM). Further, the MIC in series [13] (ref Šimunović et al. (2020)) is 1,000 μg/ml.
In the case of `CC1CC[C@H](C(C)C)[C@@H](O)C1` (single isomer, unassigned; (+)) [(+)-Menthol], the MIC/Sensitivity in series [7] was 100.0064 to 445.341 mg/mL; in [8], 26.5642 to 445.341 mg/mL; in series [9], 100.0064 to 445.341 mg/mL; in series [10], 53.1284 to 890.682 mg/mL; in [11], 53.1284 to 3562.728 mg/mL; in [12] it was 221.8892 to 7125.456 mg/mL.
Take `CC(C)[C@]12CC(=O)[C@H](C)[C@H]1C2` [Thujone]: the MIC/Sensitivity in series [7] was 919.4692 to 7355.7536 mg/mL; in series [8] it was 1838.9384 to 14711.5072 mg/mL; in [9] it was 919.4692 to 7355.7536 mg/mL; in series [10], 3677.8768 to 14711.5072 mg/mL; in series [11], 919.4692 to 7355.7536 mg/mL; in [12] it was 459.7346 to 7355.7536 mg/mL.
On to `CC(C)[C@@H]1CC[C@@H](C)CC1=O` [(–)-Menthone], for which the MIC/Sensitivity in [7] was 3578.6 to 7157.2 mg/mL; in series [8], 1789.3 to 14314.4 mg/mL; in series [17], 27.91 mg/mL (≈ 181 mM); in series [9], 1789.3 to 14314.4 mg/mL; in series [10], 894.65 to 14314.4 mg/mL; in series [18], 6980 µg/mL (≈ 45.3 mM). Moreover, the MIC/Sensitivity is 894.65 to 14314.4 mg/mL in [11] and 1789.3 to 28628.8 mg/mL in series [12].
Regarding `C=C1CCC2CC1C2(C)C` (stereo not drawn) [β-Pinene], the MIC/Sensitivity in series [7] is 103.5348 to 429.1245 mg/mL; in series [8] it was 103.5348 to 1716.498 mg/mL; in [9], 103.5348 to 3432.996 mg/mL; in [10], 213.8811 to 431.8491 mg/mL; in series [2], 5.06 µg/mL (≈ 0.0371 mM); in series [3] it was 13.50 µg/mL (≈ 0.0991 mM). Further, the MIC/Sensitivity is 10.13 µg/mL (≈ 0.0744 mM) in series [1]; 10.13 µg/mL (≈ 0.0744 mM) in [19]; 10.13 µg/mL (≈ 0.0744 mM) in [5]; 103.5348 to 6865.992 mg/mL in series [11]; 5.06 µg/mL (≈ 0.0371 mM) in series [6]; 13.50 µg/mL (≈ 0.0991 mM) in series [14]. The MIC/Sensitivity is 213.8811 to 13731.984 mg/mL in series [12], 20.25 µg/mL (≈ 0.149 mM) in [15] and 8.10 µg/mL (≈ 0.0595 mM) in [16].
On to `CC12CCC(CC1=O)C2(C)C` (stereo not shown) [Camphor], for which the MIC/Sensitivity is 246.6126 to 3957.98 mg/mL in series [7]; 59.3697 to 989.495 mg/mL in series [8]; 246.6126 to 989.495 mg/mL in series [9]; 59.3697 to 1978.99 mg/mL in series [10]; 6.10 µg/mL (≈ 0.0401 mM) in [2]; 10.17 µg/mL (≈ 0.0668 mM) in series [3]. Moreover, the MIC/Sensitivity is 7.63 µg/mL (≈ 0.0501 mM) in series [1]; 6.10 µg/mL (≈ 0.0401 mM) in series [19]; 5.08 µg/mL (≈ 0.0334 mM) in [5]; 246.6126 to 1978.99 mg/mL in series [11]; 7.63 µg/mL (≈ 0.0501 mM) in series [6]; 10.17 µg/mL (≈ 0.0668 mM) in series [14]. Also, the MIC/Sensitivity is 494.7475 to 3957.98 mg/mL in [12], 15.25 µg/mL (≈ 0.1 mM) in [15] and 6.10 µg/mL (≈ 0.0401 mM) in [16].
For `CC1CCC(C(C)C)C(O)C1` (stereo not shown) [menthol], the “activity at the tested concentrations” value in series [4] is listed as “no activity”.
Take `C=CC(C)(CCC=C(C)C)OC(C)=O` (stereo not shown) [Linalyl acetate]: the MIC/Sensitivity was 450.5 mg/mL in series [17] and 46900 µg/mL in [1]. Besides, the FICI is reported as 0.4 in series [20] (in combination with methicillin) and 0.6 in [20] (in combination with penicillin G). Besides, the MIC in [1] (S. aureus, ref Kwiatkowski et al. (2020)) was 28,200–112,600 μg/ml.
On to `CC1=CCC2CC1C2(C)C` (stereo not drawn) [(–)-α-Pinene], for which the MIC/Sensitivity in series [7] is 858.249 to 1716.498 mg/mL; in series [8], 858.249 to 54927.936 mg/mL; in series [9], 6865.992 to 27463.968 mg/mL; in series [10], 429.1245 to 1716.498 mg/mL; in [11], 858.249 to 27463.968 mg/mL; in series [12], 858.249 to 54927.936 mg/mL.
`CC(C)=CCCC(C)CCO` (single isomer, unassigned; (-)) [(–)-Citronellol]: the MIC/Sensitivity in series [7] is 100.2625 to 1665.9 mg/mL; in series [8], 49.36 to 208.2375 mg/mL; in series [9] it was 24.68 to 100.2625 mg/mL; in [10] it was 49.36 to 416.475 mg/mL; in [11], 24.68 to 208.2375 mg/mL; in [12], 49.36 to 1665.9 mg/mL.
With `CC(C)=CCC[C@@H](C)CCO` [(+)-Citronellol], the MIC/Sensitivity in [7] is 100.2625 to 832.95 mg/mL; in series [8], 49.36 to 208.2375 mg/mL; in series [9], 24.68 to 100.2625 mg/mL; in [10], 49.36 to 416.475 mg/mL; in series [11], 24.68 to 208.2375 mg/mL; in series [12], 49.36 to 1665.9 mg/mL.
For `C=C(C)C1CC=C(C)C(=O)C1` (stereo not shown) [Carvone], the MIC/Sensitivity in series [2] is 9.10 µg/mL (≈ 0.0606 mM); in series [3], 7.58 µg/mL (≈ 0.0505 mM); in [1] it was 11.38 µg/mL (≈ 0.0758 mM); in series [19], 9.10 µg/mL (≈ 0.0606 mM); in series [5] it was 15.17 µg/mL (≈ 0.101 mM); in series [6], 11.38 µg/mL (≈ 0.0758 mM). For the same compound, the MIC/Sensitivity in [14] was 11.38 µg/mL (≈ 0.0758 mM); in series [15] it was 5.69 µg/mL (≈ 0.0379 mM); in [16], 22.75 µg/mL (≈ 0.151 mM).
(+)-α-Pinene: the MIC/Sensitivity in series [7] is 51.7674 to 858.249 mg/mL; in series [8] it was 51.7674 to 1716.498 mg/mL; in series [9] it was 429.1245 to 1716.498 mg/mL; in series [10], 51.7674 to 429.1245 mg/mL; in series [11] it was 103.5348 to 1716.498 mg/mL; in series [12], 51.7674 to 1716.498 mg/mL.
As for `C=C1C2CCC(C2)C1(C)C` (stereo not shown) [Camphene], the figures for the MIC/Sensitivity in [3], in series [5] and in series [6] were 20.00 µg/mL (≈ 0.147 mM), 30.00 µg/mL (≈ 0.22 mM) and 15.00 µg/mL (≈ 0.11 mM), respectively.
